Consider 25 compounds from patent publication US20110190269A1, “GAMMA SECRETASE MODULATORS” (priority 2010, published 2011).

For the experiment, the system named is γ-secretase. As to the kind of experiment: Cellular γ-secretase assay (inhibition of Aβ42 secretion). The class given is cell-based. As to conditions: human neuroglioma H4 cells overexpressing human APP, 22 hrs incubation. Here is the method: Human neuroglioma H4 cells overexpressing human APP were plated at 30,000 cells/well/[…] in 96-well plates in IMDM media containing 10% FCS, […] Hygromycin B and incubated for 2 h at 37° C., 5% CO2 prior to adding test compounds.
Compounds for testing were dissolved in 100% Me2SO yielding in a 10 mM stock solution. Typically […] of these solutions were further diluted in 1000 μl of IMDM media (w/o FCS). Subsequent 1:1 dilutions gave a ten point dose response curve. 100 μl of each dilution was added to the cells in 96-well plates. Appropriate controls using vehicle only and reference compound were applied to this assay. The final concentration of Me2S0 was 0.4%.
After incubation for 22 hrs at 37° C., 5% CO2, 50 μl supernatant was transferred into round-bottom 96-well polypropylene plates for detection of Aβ42. 50 μl assay buffer (50 mM Tris/Cl, pH 7.4, 60 mM NaCl, 0.5% BSA, 1% TWEEN 20) was added to the wells followed by the addition of 100 μl of detection antibody (ruthenylated BAP15 0.0625 μg/ml in assay buffer). 50 μl of a premix of capture antibody (biotinylated 6E10 antibody, 1 μg/ml) and Steptavidin-coated magnetic beads (Dynal M-280, 0.125 mg/ml) were preincubated for 1 hr at room temperature before adding the assay plates. Assay plates were incubated on a shaker for 3 hrs at room temperature and finally read in the Bioveris M8 Analyser according to the manufacturer's instructions (Bioveris).
IC50 values for inhibition of Aβ42 secretion were calculated by nonlinear regression fit analysis using XLfit 4.0 software (IDBS).
Broadly, the EC50 is the concentration needed to bring the measured effect to its halfway point. Lower therefore signals an effect from little substance. For `COc1cc(Nc2nc3n(n2)CCCC3c2ccc(F)cc2)ccc1-n1cnc(C)c1` (racemic) [Example 1, [8-(4-Fluoro-phenyl)-5,6,7,8-tetrahydro-[1,2,4]triazolo[1,5-a]pyridin-2-yl]-[3-methoxy-4-(4-methyl-imidazol-1-yl)-phenyl]-amine], a half-maximal effect (EC50) was put at 0.33 µM.

As to `COc1cc(Nc2nc3n(n2)CCCC3c2ccc(F)cc2)ccc1-n1cnc(C)c1` (single isomer, unassigned) [Example 51], a half-maximal response (EC50) required 0.44 µM.

Turning to `COc1cc(Nc2nc3n(n2)CCCC3c2ccc(F)cc2)ccc1-n1cnc(C)c1` (single isomer, unassigned) [Example 52], a half-maximal effect (EC50) was put at 0.28 µM.

In the case of `COc1cc(Nc2nc3n(n2)C(c2ccc(F)cc2)CCC3)ccc1-n1cnc(C)c1` (stereo not shown) [Example 2, [5-(4-Fluoro-phenyl)-5,6,7,8-tetrahydro-[1,2,4]triazolo[1,5-a]pyridin-2-yl]-[3-methoxy-4-(4-methyl-imidazol-1-yl)-phenyl]-amine], a half-maximal response (EC50) required 0.32 µM.

In turn, `COc1cccn2nc(Nc3ccc(-n4cnc(C)c4)c(C#N)c3)nc12` [Example 3, 5-(8-Methoxy-[1,2,4]triazolo[1,5-a]pyridin-2-ylamino)-2-(4-methyl-imidazol-1-yl)-benzonitrile] yielded an EC50 of 3.35 µM.

Compound `CCCc1nc(C)cc2nc(Nc3ccc(-n4cnc(C)c4)c(C#N)c3)nn12` [Example 4, 2-(4-Methyl-imidazol-1-yl)-5-(7-methyl-5-propyl-[1,2,4]triazolo[1,5-c]pyrimidin-2-ylamino)-benzonitrile] showed a 50% effective concentration (EC50) of 1.28 µM.

`COc1ccc(-c2ccccc2)n2nc(Nc3ccc(-n4cnc(C)c4)c(C#N)c3)nc12` [Example 5, 5-(8-Methoxy-5-phenyl-[1,2,4]triazolo[1,5-a]pyridin-2-ylamino)-2-(4-methyl-imidazol-1-yl)-benzonitrile] showed an EC50 of 0.09 µM.

`COc1cc(Nc2nc3cccc(-c4ccccc4)n3n2)ccc1-n1cnc(C)c1` [Example 6, [3-Methoxy-4-(4-methyl-imidazol-1-yl)-phenyl]-(5-phenyl-[1,2,4]triazolo[1,5-a]pyridin-2-yl)-amine] gave an EC50 of 0.12 µM.

Regarding `COc1cc(Nc2nc3c(OC)cccn3n2)ccc1-n1cnc(C)c1` [Example 7, [3-Methoxy-4-(4-methyl-imidazol-1-yl)-phenyl]-(8-methoxy-[1,2,4]triazolo[1,5-a]pyridin-2-yl)-amine], the EC50 was 0.93 µM.

Consider `COc1cc(Nc2nc3cccc(-c4ccc(F)cc4)n3n2)ccc1-n1cnc(C)c1` [Example 8, [5-(4-Fluoro-phenyl)-[1,2,4]triazolo[1,5-a]pyridin-2-yl]-[3-methoxy-4-(4-methyl-imidazol-1-yl)-phenyl]-amine], for which the EC50 is 0.05 µM.

Regarding `COc1cc(Nc2nc3cncc(-c4ccc(F)cc4)n3n2)ccc1-n1cnc(C)c1` [Example 9, [5-(4-Fluoro-phenyl)-[1,2,4]triazolo[1,5-a]pyrazin-2-yl]-[3-methoxy-4-(4-methyl-imidazol-1-yl)-phenyl]-amine], the half-maximal effective concentration (EC50) was 0.2 µM.

`COc1cc(Nc2nc3c(-c4ccc(F)cc4)cccn3n2)ccc1-n1cnc(C)c1` [Example 10, [8-(4-Fluoro-phenyl)-[1,2,4]triazolo[1,5-a]pyridin-2-yl]-[3-methoxy-4-(4-methyl-imidazol-1-yl)-phenyl]-amine] came in with an EC50 of 0.06 µM.

With `COc1cc(Nc2nc3c(-c4ccc(F)cc4)nccn3n2)ccc1-n1cnc(C)c1` [Example 11, [8-(4-Fluoro-phenyl)-[1,2,4]triazolo[1,5-a]pyrazin-2-yl]-[3-methoxy-4-(4-methyl-imidazol-1-yl)-phenyl]-amine], a half-maximal effect (EC50) was put at 0.58 µM.

`COc1cc(Nc2nc3cccc(N4CCCC4)n3n2)ccc1-n1cnc(C)c1` [Example 12, [3-Methoxy-4-(4-methyl-imidazol-1-yl)-phenyl]-(5-pyrrolidin-1-yl-[1,2,4]triazolo[1,5-a]pyridin-2-yl)-amine] gave an EC50 of 0.4 µM.

For the compound `COc1cc(Nc2nc3cncc(-c4ccccc4)n3n2)ccc1-n1cnc(C)c1` [Example 13, [3-Methoxy-4-(4-methyl-imidazol-1-yl)-phenyl]-(5-phenyl-[1,2,4]triazolo[1,5-a]pyrazin-2-yl)-amine], it took 0.1 µM to reach a half-maximal effect (EC50).

Turning to `COc1cc(Nc2nc3cc(C)cc(C)n3n2)ccc1-n1cnc(C)c1` [Example 14, (5,7-Dimethyl-[1,2,4]triazolo[1,5-a]pyridin-2-yl)-[3-methoxy-4-(4-methyl-imidazol-1-yl)-phenyl]-amine], the midpoint of the response, the EC50, lay at 0.679 µM.

The compound `COc1cc(Nc2nc3nc(C)cc(C(C)(C)C)n3n2)ccc1-n1cnc(C)c1` [Example 15, (7-tert-Butyl-5-methyl-[1,2,4]triazolo[1,5-a]pyrimidin-2-yl)-[3-methoxy-4-(4-methyl-imidazol-1-yl)-phenyl]-amine acetate] returned an EC50 of 0.572 µM.

As to `CCCc1cccc2nc(Nc3ccc(-n4cnc(C)c4)c(OC)c3)nn12` [Example 16, [3-Methoxy-4-(4-methyl-imidazol-1-yl)-phenyl]-(5-propyl-[1,2,4]triazolo[1,5-a]pyridin-2-yl)-amine], the EC50 was 0.197 µM.

`COc1cc(Nc2nc3cccc(C(F)(F)F)n3n2)ccc1-n1cnc(C)c1` [Example 17, [3-Methoxy-4-(4-methyl-imidazol-1-yl)-phenyl]-(5-trifluoromethyl-[1,2,4]triazolo[1,5-a]pyridin-2-yl)-amine] came in with an EC50 of 0.285 µM.

Compound `COc1cc(Nc2nc3nc(C)cc(-c4ccccc4)n3n2)ccc1-n1cnc(C)c1` [Example 18, [3-Methoxy-4-(4-methyl-imidazol-1-yl)-phenyl]-(5-methyl-7-phenyl-[1,2,4]triazolo[1,5-a]pyrimidin-2-yl)-amine acetate] showed an EC50 of 0.129 µM.

The compound `COC(=O)c1cc(-c2cccc(OC(F)F)c2)n2nc(Nc3ccc(-n4cnc(C)c4)c(OC)c3)nc2n1` [Example 19, 7-(3-Difluoromethoxy-phenyl)-2-[3-methoxy-4-(4-methyl-imidazol-1-yl)-phenylamino]-[1,2,4]triazolo[1,5-a]pyrimidine-5-carboxylic acid methyl ester acetate] returned an EC50 of 0.953 µM.

`COc1cc(Nc2nc3nc(C(F)(F)F)cc(-c4ccc(Cl)cc4)n3n2)ccc1-n1cnc(C)c1` [Example 20, [7-(4-Chloro-phenyl)-5-trifluoromethyl-[1,2,4]triazolo[1,5-a]pyrimidin-2-yl]-[3-methoxy-4-(4-methyl-imidazol-1-yl)-phenyl]-amine acetate] showed an EC50 of 0.107 µM.

Regarding `COc1cc(Nc2nc3nc4c(c(-c5ccccc5)n3n2)CCCC4)ccc1-n1cnc(C)c1` [Example 21, [3-Methoxy-4-(4-methyl-imidazol-1-yl)-phenyl]-(9-phenyl-5,6,7,8-tetrahydro-[1,2,4]triazolo[5,1-b]quinazolin-2-yl)-amine acetate], it took 0.201 µM to reach a half-maximal effect (EC50).

`COc1cc(Nc2nc3c(OC)ccc(-c4ccc(F)cc4)n3n2)ccc1-n1cnc(C)c1` [Example 22, [5-(4-Fluoro-phenyl)-8-methoxy-[1,2,4]triazolo[1,5-a]pyridin-2-yl]-[3-methoxy-4-(4-methyl-imidazol-1-yl)-phenyl]-amine] had an EC50 of 0.074 µM.

The compound `COc1cc(Nc2nc3nccc(-c4ccc(OC(F)(F)F)cc4)n3n2)ccc1-n1cnc(C)c1` [Example 23, [3-Methoxy-4-(4-methyl-imidazol-1-yl)-phenyl]-[7-(4-trifluoromethoxy-phenyl)-[1,2,4]triazolo[1,5-a]pyrimidin-2-yl]-amine acetate] came in with a concentration giving a half-maximal response (EC50) of 0.191 µM.
